Results taken from ChEMBL document CHEMBL1124814 (J Med Chem, 1990).
Positions of bridges follow the written chain, without caps; N, C: chain ends. Residues, ends and D or L forms follow the SMILES beside them.

How the values were obtained:
[1] = target: T1, Opioid receptor (Mus musculus) (UniProt P42866+P32300+P33534); assay: Opioid receptors antagonist activity in smooth-muscle tissue mouse vas deferens (MVD) in presence of ICI; assay type: functional, tissue-based
[2] = target: T1, Opioid receptor (Mus musculus); assay: Opioid receptors antagonist activity in smooth-muscle tissue mouse vas deferens (MVD) in presence of CTAP; assay type: functional, tissue-based
[3] = target: T2, Opioid receptors; mu/kappa/delta (Homo sapiens, UniProt P41145+P41143+P35372); conditions: Cavia porcellus; Ileum
T2 sequence (P35372 whole entry, looked up): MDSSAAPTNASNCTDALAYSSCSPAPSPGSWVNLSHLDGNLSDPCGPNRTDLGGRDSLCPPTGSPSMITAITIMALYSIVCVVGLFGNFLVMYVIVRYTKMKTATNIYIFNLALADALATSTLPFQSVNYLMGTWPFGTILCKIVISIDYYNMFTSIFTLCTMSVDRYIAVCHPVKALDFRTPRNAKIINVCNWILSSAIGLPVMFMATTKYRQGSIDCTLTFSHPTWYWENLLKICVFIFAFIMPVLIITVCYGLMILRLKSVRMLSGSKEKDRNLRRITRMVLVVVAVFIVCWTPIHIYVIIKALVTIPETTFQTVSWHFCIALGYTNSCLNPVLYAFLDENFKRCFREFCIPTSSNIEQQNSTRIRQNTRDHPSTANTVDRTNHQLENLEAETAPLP
T2 sequence (P41143 whole entry, looked up): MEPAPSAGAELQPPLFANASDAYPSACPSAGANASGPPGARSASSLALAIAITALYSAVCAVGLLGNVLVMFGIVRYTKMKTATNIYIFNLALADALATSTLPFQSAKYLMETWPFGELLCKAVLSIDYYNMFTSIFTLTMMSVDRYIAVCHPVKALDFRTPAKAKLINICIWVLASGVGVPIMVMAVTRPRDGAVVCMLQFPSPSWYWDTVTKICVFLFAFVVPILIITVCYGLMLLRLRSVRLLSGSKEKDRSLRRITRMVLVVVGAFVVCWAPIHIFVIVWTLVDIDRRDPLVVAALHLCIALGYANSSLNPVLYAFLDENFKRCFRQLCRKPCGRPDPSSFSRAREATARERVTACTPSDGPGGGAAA
T2 sequence (P41145 whole entry, looked up): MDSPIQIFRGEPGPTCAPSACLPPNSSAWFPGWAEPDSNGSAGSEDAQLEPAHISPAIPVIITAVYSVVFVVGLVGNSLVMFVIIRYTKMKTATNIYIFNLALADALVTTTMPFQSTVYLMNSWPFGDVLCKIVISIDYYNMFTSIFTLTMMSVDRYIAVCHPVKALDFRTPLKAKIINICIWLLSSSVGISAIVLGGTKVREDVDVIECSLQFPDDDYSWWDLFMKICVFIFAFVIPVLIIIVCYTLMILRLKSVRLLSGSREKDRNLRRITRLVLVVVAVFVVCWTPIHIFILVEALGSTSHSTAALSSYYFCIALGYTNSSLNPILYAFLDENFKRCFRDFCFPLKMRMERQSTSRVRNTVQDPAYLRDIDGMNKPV
Description: Opioid receptors antagonist activity in smooth-muscle tissue of guinea pig ileum (GPI) in presence of NLX

Mu-type opioid receptor = Mu-type opioid receptor (Cavia porcellus, UniProt P97266); assay: Binding affinity against Opioid receptor mu 1 in guinea pig brain homogenate using [3H]- PL-17 as radioligand; assay type: tissue-based
Sequence of Mu-type opioid receptor (P97266 whole entry): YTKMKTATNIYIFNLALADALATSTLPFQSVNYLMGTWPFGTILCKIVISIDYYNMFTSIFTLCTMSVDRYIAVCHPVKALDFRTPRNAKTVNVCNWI

[4] = target: Kappa-type opioid receptor (Cavia porcellus, UniProt P41144); assay: Binding affinity against Opioid receptor kappa 1 in guinea pig brain homogenate using [3H]- U-69593 as radioligand; assay type: tissue-based
Sequence of Kappa-type opioid receptor (P41144 whole entry): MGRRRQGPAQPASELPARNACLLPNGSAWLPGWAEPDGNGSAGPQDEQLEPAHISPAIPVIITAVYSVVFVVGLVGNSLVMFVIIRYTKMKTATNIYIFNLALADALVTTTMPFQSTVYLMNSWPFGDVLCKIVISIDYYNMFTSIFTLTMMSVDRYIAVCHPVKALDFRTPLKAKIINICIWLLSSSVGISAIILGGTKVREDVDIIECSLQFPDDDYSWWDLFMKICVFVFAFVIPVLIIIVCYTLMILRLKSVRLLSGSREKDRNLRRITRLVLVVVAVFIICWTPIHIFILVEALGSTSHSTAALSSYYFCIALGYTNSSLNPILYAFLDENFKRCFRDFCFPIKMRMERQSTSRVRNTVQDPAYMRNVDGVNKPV

[5] = target: T1, Opioid receptor (Mus musculus); assay: Opioid receptors antagonist activity in smooth-muscle tissue mouse vas deferens (MVD) in presence of NLX; assay type: functional, tissue-based
Opioid receptor = Opioid receptor (Mus musculus, UniProt P42866+P32300+P33534); assay: Opioid receptors antagonist activity in smooth-muscle tissue mouse vas deferens (MVD); assay type: functional, tissue-based
[6] = target: T2, Opioid receptors; mu/kappa/delta; assay: Opioid receptors antagonist activity in smooth-muscle tissue of guinea pig ileum (GPI); assay type: functional, tissue-based, Cavia porcellus; conditions: target entry is the homologue from another species
[7] = target: T2, Opioid receptors; mu/kappa/delta; conditions: Cavia porcellus; Ileum; remark: listed apart in the source
Description: Opioid receptors antagonist activity in smooth-muscle tissue of guinea pig ileum (GPI) in presence of CTAP

T1 sequence (P32300 whole entry, looked up): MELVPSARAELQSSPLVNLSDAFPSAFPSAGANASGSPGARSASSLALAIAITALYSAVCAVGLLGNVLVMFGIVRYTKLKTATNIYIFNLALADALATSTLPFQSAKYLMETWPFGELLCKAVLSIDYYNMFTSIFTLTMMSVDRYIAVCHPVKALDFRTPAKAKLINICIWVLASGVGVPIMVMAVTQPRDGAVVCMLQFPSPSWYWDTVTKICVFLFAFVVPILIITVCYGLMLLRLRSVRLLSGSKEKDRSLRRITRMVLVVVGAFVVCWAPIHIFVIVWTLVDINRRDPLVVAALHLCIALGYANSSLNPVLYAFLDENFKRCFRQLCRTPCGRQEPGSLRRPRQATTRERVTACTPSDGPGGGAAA
T1 sequence (P33534 whole entry, looked up): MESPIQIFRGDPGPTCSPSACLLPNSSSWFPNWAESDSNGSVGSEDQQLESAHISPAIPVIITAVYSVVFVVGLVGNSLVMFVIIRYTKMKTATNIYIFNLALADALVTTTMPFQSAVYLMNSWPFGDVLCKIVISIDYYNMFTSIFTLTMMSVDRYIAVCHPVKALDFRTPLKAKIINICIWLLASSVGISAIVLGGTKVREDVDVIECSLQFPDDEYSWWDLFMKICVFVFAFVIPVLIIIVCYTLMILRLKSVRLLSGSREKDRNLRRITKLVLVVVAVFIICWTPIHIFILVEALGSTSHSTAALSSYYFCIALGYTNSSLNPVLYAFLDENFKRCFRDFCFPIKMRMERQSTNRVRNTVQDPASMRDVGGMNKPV
T1 sequence (P42866 whole entry, looked up): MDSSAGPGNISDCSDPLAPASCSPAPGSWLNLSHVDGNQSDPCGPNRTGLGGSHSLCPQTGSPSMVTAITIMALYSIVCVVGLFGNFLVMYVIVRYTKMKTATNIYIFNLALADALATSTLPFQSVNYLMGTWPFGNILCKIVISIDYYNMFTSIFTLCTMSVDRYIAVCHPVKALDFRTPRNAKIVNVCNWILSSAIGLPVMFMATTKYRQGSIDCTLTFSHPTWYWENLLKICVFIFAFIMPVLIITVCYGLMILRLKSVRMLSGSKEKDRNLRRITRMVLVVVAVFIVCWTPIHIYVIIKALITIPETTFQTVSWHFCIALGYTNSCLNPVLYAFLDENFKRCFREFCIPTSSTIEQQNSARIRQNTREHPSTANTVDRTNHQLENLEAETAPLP

SMILES	Ke [1] [nM]	Ke [2] [nM]	Ke [3] [nM]	IC50 (Mu-type opioid receptor) [nM]	IC50 [4] [nM]	Ke [5] [nM]	IC50 (Opioid receptor) [nM]	IC50 [6] [nM]	Ke [7] [nM]
CC(C)C[C@@H]1NC(=O)[C@H](CCCCN)NC(=O)[C@@H]2CCCN2C(=O)[C@H](CCCN=C(N)N)NC(=O)[C@@H](NC(=O)[C@H](CCCN=C(N)N)NC(=O)[C@H](CCCN=C(N)N)NC(=O)[C@H](CC(C)C)NC(=O)[C@H](Cc2ccccc2)NC(=O)CNC(=O)CNC(=O)[C@@H](N)Cc2ccc(O)cc2)CSSC[C@@H](C(N)=O)NC1=O	156	175	38.9	0.986	0.074	95.2	20.1	1.3	–
C[C@H]1NC(=O)[C@H](CCCNC(=N)N)NC(=O)[C@H](CCCNC(=N)N)NC(=O)[C@@H](NC(=O)[C@H](Cc2ccccc2)NC(=O)CNC(=O)CNC(=O)[C@@H](N)Cc2ccc(O)cc2)CSSC[C@@H](C(N)=O)NC(=O)[C@@H]2CCCN2C(=O)[C@H](CCCNC(=N)N)NC1=O	–	–	–	2.3	0.391	–	–	–	–
CC(C)C[C@@H]1NC(=O)[C@H](CCCCN)NC(=O)[C@@H]2CCCN2C(=O)[C@H](CCCN=C(N)N)NC(=O)[C@H](NC(=O)[C@H](CCCN=C(N)N)NC(=O)[C@H](CCCN=C(N)N)NC(=O)[C@H](CC(C)C)NC(=O)[C@H](Cc2ccccc2)NC(=O)CNC(=O)CNC(=O)[C@@H](N)Cc2ccc(O)cc2)CSSC[C@@H](C(N)=O)NC1=O	667	370	32.3	–	–	30.3	24.5	2.27	–
CC[C@H](C)[C@H](NC(=O)[C@H](CCCN=C(N)N)NC(=O)[C@H](CCCN=C(N)N)NC(=O)[C@H](CC(C)C)NC(=O)[C@H](Cc1ccccc1)NC(=O)CNC(=O)CNC(=O)[C@@H](N)Cc1ccc(O)cc1)C(=O)N[C@@H](CCCN=C(N)N)C(=O)N1CCC[C@H]1C(=O)N[C@@H](CCCCN)C(N)=O	625	–	–	1.08	–	125	204	7.5	–
CC[C@H](C)[C@H](NC(=O)[C@H](CCCN=C(N)N)NC(=O)[C@H](CCCN=C(N)N)NC(=O)[C@H](CC(C)C)NC(=O)[C@H](Cc1ccccc1)NC(=O)CNC(=O)CNC(=O)[C@@H](N)Cc1ccc(O)cc1)C(=O)N[C@@H](CCCN=C(N)N)C(=O)N1CCC[C@H]1C(=O)N[C@@H](CCCCN)C(=O)N[C@@H](CC(C)C)C(=O)N[C@@H](CCCCN)C(N)=O	–	–	82	1.29	0.114	100	7.8	1.7	2000
CC[C@H](C)[C@@H]1NC(=O)[C@H](CCCN=C(N)N)NC(=O)[C@H](CCCN=C(N)N)NC(=O)[C@@H](NC(=O)[C@H](Cc2ccccc2)NC(=O)CNC(=O)CNC(=O)[C@@H](N)Cc2ccc(O)cc2)CSSC[C@@H](C(N)=O)NC(=O)[C@@H]2CCCN2C(=O)[C@H](CCCN=C(N)N)NC1=O (H-YGGFCRRIRPC-NH2; disulfide 5-11)	86.2	2000	66.7	0.027	0.285	80	421	1080	–
CC(C)C[C@@H]1NC(=O)[C@H](CCCCN)NC(=O)[C@@H]2CCCN2C(=O)[C@H](CCCNC(=N)N)NC(=O)[C@H](NC(=O)[C@H](CCCNC(=N)N)NC(=O)[C@H](CCCNC(=N)N)NC(=O)[C@H](CC(C)C)NC(=O)[C@H](Cc2ccccc2)NC(=O)CNC(=O)CNC(=O)[C@@H](N)Cc2ccc(O)cc2)CSSC[C@@H](C(N)=O)NC1=O	–	–	–	10.3	1.76	–	–	–	–
CC(C)C[C@H](NC(=O)[C@H](Cc1ccccc1)NC(=O)CNC(=O)CNC(=O)[C@@H](N)Cc1ccc(O)cc1)C(=O)N[C@@H](CCCN=C(N)N)C(=O)N[C@@H](CCCN=C(N)N)C(=O)N[C@@H]1CSSC[C@H](C(N)=O)NC(=O)[C@H](CC(C)C)NC(=O)[C@H](CCCCN)NC(=O)[C@@H]2CCCN2C(=O)[C@H](CCCN=C(N)N)NC1=O	1000	1430	233	0.362	–	18.2	19.5	1.75	–
CC[C@H](C)[C@H](NC(=O)[C@H](CCCNC(=N)N)NC(=O)[C@H](CCCNC(=N)N)NC(=O)[C@H](CC(C)C)NC(=O)[C@H](Cc1ccccc1)NC(=O)CNC(=O)CNC(=O)[C@@H](N)Cc1ccc(O)cc1)C(=O)N[C@@H](CCCNC(=N)N)C(=O)N1CCC[C@H]1C(=O)N[C@@H](CCCCN)C(=O)N[C@@H](CC(C)C)C(=O)N[C@@H](CCCCN)C(=O)N[C@@H](Cc1c[nH]c2ccccc12)C(=O)N[C@@H](CC(=O)O)C(=O)N[C@@H](CC(N)=O)C(=O)N[C@@H](CCC(N)=O)C(=O)O [DYNORPHIN A (1-17)]	–	–	–	–	0.231	–	–	–	–
C[C@H]1NC(=O)[C@H](CCCN=C(N)N)NC(=O)[C@H](CCCN=C(N)N)NC(=O)[C@@H](NC(=O)[C@H](Cc2ccccc2)NC(=O)CNC(=O)CNC(=O)[C@@H](N)Cc2ccc(O)cc2)CSSC[C@@H](C(N)=O)NC(=O)[C@@H]2CCCN2C(=O)[C@H](CCCN=C(N)N)NC1=O	21.3	500	–	–	–	–	1660	4406	50
